# In US10308682B2, “Inhibition of tumor growth with aggregates of small molecules” (BRANDEIS UNIVERSITY, priority 2013, dated 2019):
# Columns and labels:
# HeLa cells [1] = experiment: Cell viability assay (MTT), HeLa cells; assay type: cell-based
# Protocol: (§1) Cells in exponential growth phase were seeded in a 96 well plate at a concentration of 50,000 cell/well. The cells were allowed to attach to the wells for 24 h at 37° C., 5% CO2, then the culture medium was removed and 100 μL new culture medium containing 1 at gradient concentrations was placed into each well. After culturing at 37° C., 5% CO2 for desired time, each well was added by 10 μL of 5 mg/mL MTT 43-(4,5-Dimethylthiazol-2-yl)-2,5-diphenyltetrazolium bromide), and the plated cells were incubate at dark for 4 h. 100 μL 10% SDS with 0.01 M HCl was added to each well to stop the reduction reaction and to dissolve the purple. After incubation of the cells at 37° C. for overnight, the viability is measured. Data represent the mean±standard deviation of three independent experiments.
# (§2) The estimation of the threshold concentration of aggregation (320-340 μM) for 1 allows us to examine the cytotoxicity of 1 in monomer and molecular aggregate forms. We first tested the cytotoxicity of 1 towards HeLa cells, the most widely studied cancer cell line, below and above the threshold concentration.
# U87MG = experiment: Cell viability assay (MTT), U87MG; assay type: cell-based
# Protocol: as §1, §2
# HeLa cells [2] = experiment: Intracellular concentration of 1 in HeLa cells by LC-MS; assay type: cell-based; conditions: incubated with 300 μM and 400 μM for 24 h
# Protocol: FIG. 3 depicts the response of cancer cells toward molecular aggregates of 1. (a) Intracellular concentration of 1 in HeLa cells treated with 1 for 12 h at different temperatures measure by LC-MS (left bar=37° C.; right bar=4° C.). (b) Confocal images of FITC annexin V and PI stained HeLa cells without incubation with 1 (live cells), HeLa cells treated with 400 μM of 1 for 36 h, and necrotic HeLa cells (induced by DMSO). Scale bar=20 μm. (c) Fluorescence emission of 7-AAD and 1 in cell lysate (15,000 cell/mL) at λex=488 nm. (d) Cell cycle analysis, by flow cytometry, of HeLa cells treated with 0, 300 or 400 μM of 1 for 24 h. Depletion of G2/M phase occurs in cells treated with 400 μM of 1. […] The gaps were created on the HeLa cells of 100% confluence in 24 well plates, and measured after incubation for 18 h.
# The cytotoxicity of the molecular aggregates of 1 toward the cancer cells in cell assays and on animal model warrants further examination on the mechanism of the cell death. […] We measured the intracellular concentrations of 1 in the lysate of the HeLa cells incubated with 300 μM and 400 μM of 1 for 24 h (FIG. 3a) at 37° C. or 4° C. Based on the amount of 1, measured by liquid chromatography-mass spectroscopy (LC-MS) and the estimated total cell volume, the concentration of 1 inside the cells is about 150% of the concentration of 1 used for the incubation at 37° C. […]
# HeLa cells [3] = experiment: Flow cytometry cell-cycle analysis of HeLa cells; assay type: cell-based; conditions: 400 μM, 24 h
# Protocol: FIG. 3 depicts the response of cancer cells toward molecular aggregates of 1. (a) Intracellular concentration of 1 in HeLa cells treated with 1 for 12 h at different temperatures measure by LC-MS (left bar=37° C.; right bar=4° C.). (b) Confocal images of FITC annexin V and PI stained HeLa cells without incubation with 1 (live cells), HeLa cells treated with 400 μM of 1 for 36 h, and necrotic HeLa cells (induced by DMSO). Scale bar=20 μm. (c) Fluorescence emission of 7-AAD and 1 in cell lysate (15,000 cell/mL) at λex=488 nm. (d) Cell cycle analysis, by flow cytometry, of HeLa cells treated with 0, 300 or 400 μM of 1 for 24 h. Depletion of G2/M phase occurs in cells treated with 400 μM of 1. (e) Cell migration assay of HeLa cells treated with 0, 300, 400 or 500 μM of 1. The gaps were created on the HeLa cells of 100% confluence in 24 well plates, and measured after incubation for 18 h.
# Because apoptosis associates with cell cycle, we examined the effect of the aggregates of 1 on the cell cycle. […] The cell-cycle distribution of the HeLa cells incubated with 400 μM of 1 indicates significant decrease of the peaks of S phase and G2/M phase. […] The slight right shift of the whole spectra results from the overlapping of emission of 7-AAD and 1 (FIG. 3c). But such shift barely hampers the distribution of cell-cycle of the spectra. The aggregates of 1 also delay the migration of the HeLa cells.
# actin = target: T1, actin (Homo sapiens, UniProt P60709); experiment: Hydrogel based protein pull-down assay, actin; assay type: binding; conditions: hydrogel 10 mM, HeLa cell lysate, Western blot
# T1 construct: snap freeze and thaw for 3 cycles to lyse the cells; endogenous in cells; host or cells: HeLa cell lysate
# Protocol: 4×10^7 of HeLa cells were scrapped from petri dish and washed with PBS buffer for 3 times then centrifuged at 300 g for 5 minutes. The collected cell pellet was mixed with phosphate buffer (100 mM) then snap freeze and thaw for 3 cycles to lyse the cells. The cell lysate was clarified by centrifugation at 12,000 g for 20 min at 4° C. to remove the whole cells, nuclei and large mitochondria. 50 μL of the supernatant lysate was gently mixed with 30 μL hydrogel of 1 (10 mM in PBS buffer, pH 7.6) on rotator at RT for 30 min. The hydrogel was collected by centrifugation (12,000 g, 5 min, 4° C.) and the supernatant was collected and placed on ice before analysis. The hydrogel was washed three times by gently mixing with 50 μL of the washing buffer (50 mM phosphate buffer pH 7.6 supplemented with 150 mM NaCl) on rotator at RT for 10 min followed by separation on centrifuge (12,000 g, 5 min, 4° C.). Supernatants were collected and placed on ice before analysis. Finally, the remaining hydrogel was dissolved using 1:1 washing buffer and 5× Laemeli buffer. All other samples were mixed with 5× Laemeli buffer (final concentration 2×) before SDS-PAGE.
# That 1 enters the cells to affect cell cycle, cell migration, and eventually cell viability implies the interactions between the aggregates of 1 and certain intracellular proteins. […]
# PC12 cells = experiment: Tubulin staining (tubulin tracker), PC12 cells; assay type: cell-based; conditions: 400 μM, 24 h
# [4] = Influence of surfactant Triton X-100 on hydrogel of 1; assay type: physicochemical; conditions: 1 at 10 mM
# Protocol: FIG. 14 depicts the influence of a surfactant on self-assembly of 1. Triton X-100 was mixed with 1 (10 mM) before and after hydrogel formation. The hydrogel of 1 can tolerate up to 0.1% Triton X-100. Treated with 0.1% Triton X-100, the fibrillar aggregates of 1 tend to cross-link with each other instead of randomly dispersing, but the width of fibrillar aggregates remains unchanged.
smiles,measurement,setting,value
O=C(Cc1ccc2ccccc2c1)N[C@@H](Cc1ccccc1)C(=O)N[C@@H](Cc1ccccc1)C(=O)O [Compound 1],concentration at which molecular aggregates exhibit cytotoxicity,HeLa cells [1],400 µM
same,"concentration at which molecular aggregates exhibit cytotoxicity, weight/volume",HeLa cells [1]; 400 μM converted,about 0.19 mg/mL
same,cytotoxicity towards HeLa cells,"HeLa cells [1]; 200 and 300 μM, below threshold concentration",little cytotoxicity
same,"cell death of HeLa cells, extended assay","HeLa cells [1]; 200 or 300 μM, 72 h",hardly results in significant cell death
same,time dependent viability of HeLa cells,HeLa cells [1]; 400 and 500 μM,little loss of cell viability until after 38 h
same,cytotoxicity towards HeLa cells after removal of aggregates,"HeLa cells [1]; 400 and 500 μM, medium passed through 0.22 μm PVDF filter",largely alleviates the cytotoxicity
same,viability of the HeLa cells,"HeLa cells [1]; 400 and 500 μM, within 48 h, as prepared medium",less than 20%
same,cytotoxicity towards U87MG,U87MG,decreases of cell viabilities only observed at 400 and 500 μM
same,concentration of 1 inside the cells,HeLa cells [2]; 4° C.,about 30 % of the incubating concentration
same,concentration of 1 inside the cells,HeLa cells [2]; 37° C.,about 150 % of the concentration of 1 used for the incubation
same,cell-cycle distribution,HeLa cells [3],arrest the HeLa cells at the G1/G0 phase
same,binding of actin to the aggregates of 1,actin,low binding affinity
same,microtubule morphology,PC12 cells,intact microtubule networks
same,Triton X-100 tolerated by the hydrogel,[4],up to 0.1 % Triton X-100
